Reference: patent US20150359810A1, “METHODS FOR TREATING EPSTEIN-BARR VIRUS (EBV) ASSOCIATED CANCERS USING ORAL FORMULATIONS OF 5-AZACYTIDINE” (Celgene Corporation, priority 2014, published 2015)
“Also recorded” adds a separate entry of the source.

Tests used:
[1] = tested on: EBV proteins EBNA1, EBNA2, Zta, and LMP1 in Ramos cell line; test: EBV protein expression by Western blotting in Ramos cell line; format: cell-based, Epstein-Barr virus; conditions: AZA once a day for 1 or 2 days, cells collected on day 6, listed as AZA
Protocol: Assay Procedure: The RAEL and Ramos Burkitt's lymphoma cell lines were treated with vehicle (water) or AZA once a day (qd) for the number of days indicated in FIG. 6 and FIG. 15. For the experiment described in FIG. 6, cells were collected on days 1 through 9 (singlicate sample per condition per time point); at each time point, an aliquot of cells was used to purify deoxyribonucleic acid (DNA) (DNeasy Blood & Tissue Kit; Qiagen; Valencia, Calif.) for EBV DNA (Z and R promoters) methylation analysis (FIG. 7; FIG. 8) at EpigenDx (Hopkinton, Mass.), while a second aliquot of cells was lysed in QuantiGene Lysis Buffer for gene expression analysis (FIG. 9 to FIG. 14) using the QuantiGene Multiplex 2.0 assay (Affymetrix; Santa Clara, Calif.). The pyrosequencing assay used at EpigenDx to assess the methylation status of cytosine-phosphate-guanine dinucleotides (CpGs) 1-3 of the EBV Z promoter (Li L, Su X, Choi G, Cao Y, Ambinder R, Tao Q. Methylation profiling of Epstein-Barr virus immediate-early gene promoters, BZLF1 (EBV gene encoding for the Zta transcription factor) and BRLF1 (EBV gene encoding for the Rta transcription factor) in tumors of epithelial, NK- and B-cell origins. BMC Cancer 2012 Mar. 29; 12:125) was ADS3981-FS1, while that for CpGs 16-20 of the EBV R promoter (Li, 2012) was ADS3984-FS2. […]

[2] = tested on: EBV Z promoter (CpGs 1-3); test: EBV promoter methylation by pyrosequencing in RAEL cells (Z promoter); format: cell-based, Epstein-Barr Virus
Protocol: (§1) Assay Procedure: The RAEL and Ramos Burkitt's lymphoma cell lines were treated with vehicle (water) or AZA once a day (qd) for the number of days indicated in FIG. 6 and FIG. 15. For the experiment described in FIG. 6, cells were collected on days 1 through 9 (singlicate sample per condition per time point); at each time point, an aliquot of cells was used to purify deoxyribonucleic acid (DNA) (DNeasy Blood & Tissue Kit; Qiagen; Valencia, Calif.) for EBV DNA (Z and R promoters) methylation analysis (FIG. 7; FIG. 8) at EpigenDx (Hopkinton, Mass.), while a second aliquot of cells was lysed in QuantiGene Lysis Buffer for gene expression analysis (FIG. 9 to FIG. 14) using the QuantiGene Multiplex 2.0 assay (Affymetrix; Santa Clara, Calif.). The pyrosequencing assay used at EpigenDx to assess the methylation status of cytosine-phosphate-guanine dinucleotides (CpGs) 1-3 of the EBV Z promoter (Li L, Su X, Choi G, Cao Y, Ambinder R, Tao Q. Methylation profiling of Epstein-Barr virus immediate-early gene promoters, BZLF1 (EBV gene encoding for the Zta transcription factor) and BRLF1 (EBV gene encoding for the Rta transcription factor) in tumors of epithelial, NK- and B-cell origins. BMC Cancer 2012 Mar. 29; 12:125) was ADS3981-FS1, while that for CpGs 16-20 of the EBV R promoter (Li, 2012) was ADS3984-FS2.
(§2) The RAEL EBV^+ Burkitt's lymphoma cell line was treated with vehicle or 0.3 μM AZA once a day for 4 days (FIG. 6). Cells were harvested on days 1 through 9 to assess the effects of AZA on EBV promoter (Zp and Rp) methylation, as well as EBV gene expression. […] Zp and Rp methylation remained low for the remainder of the experiment, even in the absence of continued AZA treatment (FIG. 7; FIG. 8). In parallel with the effects of AZA on EBV promoter methylation, AZA induced expression of EBV genes.

[3] = tested on: DNA methylation (LINE-1) in PBMC DNAs; test: LINE-1 DNA methylation in PBMC DNAs of patients; format: in vivo, human; conditions: Arm C patients, 200 mg oral AZA alone; Days 1, 8, and 15 of 21-day cycle
Protocol: In one embodiment, PBMC DNA was used for assessing changes in DNA methylation, using assays such as LINE-1 methylation, %5 mdC mass spec, Infinium® Methylation27 Array, and Infinium® Methylation450 Array. In one study, DNA methylation (LINE-1) in PBMC DNAs from patients in clinical studies described in Example 1, dosed with 200 mg oral AZA alone or in combination with CDBCA or ABX, was measured on Days 1, 8, and 15 of 21-day cycle. […] In one study, %5 mdC in PBMC DNAs from patients in clinical studies described in Example 1, dosed with 200 mg oral AZA alone or in combination with CDBCA or ABX, was measured on Days 1, 8, and 15 of 21-day cycle. In one study, methylation levels were measured on Days 1, 8, and 15 of 21-day cycle using Infinium® Methylation27 Array (patients dosed with 200 mg oral AZA alone or in combination with CDBCA or ABX) and density profiles of average methylation levels were analyzed. […] In another study, methylation levels were measured using Infinium® Methylation450 Array (patients dosed with 300 mg oral AZA alone or in combination with CDBCA or ABX) and density profiles of average methylation levels were analyzed, as well as % change of hypermethylated loci (beta >0.7) upon treatment.

[4] = tested on: EBV proteins EBNA1, EBNA2, Zta, and LMP1 in RAEL cell line; test: EBV protein expression by Western blotting in RAEL cell line; format: cell-based, Epstein-Barr virus; conditions: cells collected on day 6
[5] = PK exposure of AZA in patients of the clinical study; format: in vivo; conditions: human, plasma; oral AZA 200 mg or 300 mg, alone or in combination; read-out: AUCinf of patients in whom decreases in DNA methylation were observed
[6] = tested on: EBV R promoter (CpGs 16-20); test: EBV promoter methylation by pyrosequencing in RAEL cells (R promoter); format: cell-based, Epstein-Barr Virus
Protocol: as §1, §2

[7] = tested on: higher-risk MDS; conditions: Phase III study; administered subcutaneously; subjects with higher-risk MDS; cited from earlier work
[8] = tested on: DNA methylation in PBMCs; test: DNA methylation in PBMCs of patients by Infinium Methylation27/Methylation450 Array; format: in vivo, human; conditions: Arm C alone; for patients with DNA hypomethylation in PBMCs: Arm A with CBDCA
[9] = tested on: EBNA1; test: EBV gene expression in RAEL cells, QuantiGene Multiplex 2.0 assay; format: cell-based, Epstein-Barr Virus; conditions: 0.3 μM AZA once a day for 4 days, days 1 through 9, listed as AZA
Protocol: as §1, §2

[10] = tested on: EBNA2; test: as above; format: cell-based, Epstein-Barr Virus; conditions: 0.3 μM AZA once a day for 4 days, days 1 through 9, listed as AZA
Protocol: as §1, §2

[11] = tested on: BHRF1; test: as above; format: cell-based, Epstein-Barr Virus; conditions: 0.3 μM AZA once a day for 4 days, days 1 through 9, listed as AZA
Protocol: as §1, §2

[12] = tested on: LMP1; test: as above; format: cell-based, Epstein-Barr Virus; conditions: 0.3 μM AZA once a day for 4 days, days 1 through 9, listed as AZA
Protocol: as §1, §2

[13] = tested on: BLLF1; test: as above; format: cell-based, Epstein-Barr Virus; conditions: 0.3 μM AZA once a day for 4 days, days 1 through 9
Protocol: as §1, §2

[14] = tested on: BRLF1; test: as above; format: cell-based, Epstein-Barr Virus; conditions: 0.3 μM AZA once a day for 4 days, days 1 through 9, listed as AZA
Protocol: as §1, §2

[15] = tested on: Zta; conditions: RAEL cells; 72 hours; AZA 0.3 or 1.0 uM, ROMI 0.5, 1.0, or 2.0 nM, or combination
[16] = RAEL EBV+ Burkitt's lymphoma cell line, 0.3 μM AZA once a day for 4 days, harvested days 1 through 9, listed as AZA
[17] = RAEL, 0.3 μM AZA once a day for 4 days
[18] = RAEL, after 0.3 μM AZA once a day for 4 days, up to day 9

With Nc1ncn([C@@H]2O[C@H](CO)[C@@H](O)[C@H]2O)c(=O)n1 [5-azacytidine, 4-amino-1-β-D-ribofuranosyl-1,3,5-triazin-2(1H)-one] the “expression of the EBV proteins EBNA1, EBNA2, Zta, and LMP1” value [1] was “not in the EBV-negative (EBV−) Ramos”, the Zp methylation [2, 16] was “causes the demethylation; also recorded: precipitously decreased” and the “time to maximal hypomethylation of Zp” value [2, 17] was ≤ 4 days. The “Zp methylation for the remainder of the experiment, in the absence of continued AZA treatment” value [2, 18] was “remained low”, the “DNA methylation (LINE-1) in PBMC DNAs” value [3] was “Decreases in LINE-1 methylation were observed for two patients” and the “expression of the EBV proteins EBNA1, EBNA2, Zta, and LMP1” value ([4]; RAEL (EBV+) cell line, AZA once a day for 1 or 2 days, listed as AZA) was “induces expression of EBV proteins; also recorded: dose-dependently induced expression”. The “induction of EBV proteins, AZA for 2 days compared with AZA for 1 day” value ([4]; RAEL, Western blotting) was “greater induction of EBV proteins”, the AUC(0-inf) [5] was > 350 ng·h/mL and the Rp methylation [6, 16] was “causes the demethylation; also recorded: precipitously decreased”. For the same compound, the “time to maximal hypomethylation of Rp” value [6, 17] was ≤ 4 days, the “Rp methylation for the remainder of the experiment, in the absence of continued AZA treatment” value [6, 18] was “remained low” and the “survival and time to AML transformation or death” value [7] was “significantly prolonged survival and time to AML transformation or death”. The “change in DNA methylation in PBMCs upon treatment (Infinium Methylation27 Array, density profiles of average methylation levels)” value ([8]; 200 mg oral AZA, Arm A with CDBCA, Arm B with ABX, Days 1, 8, and 15 of 21-day cycle) was “decreases in hypermethylated loci (beta >0.7) were observed”, the “patients with DNA hypomethylation in PBMCs” value ([8]; 200 mg oral AZA, Arm B with ABX) was 5/6 and the “patients with DNA hypomethylation in PBMCs” value ([8]; 300 mg oral AZA) was 3/3. For the same compound, the “ribonucleic acid expression of EBNA1” value [9] was “strongly induced expression”, the “ribonucleic acid expression of EBNA2” value [10] was “strongly induced expression” and the “ribonucleic acid expression of BHRF1” value [11] was “strongly induced expression”. The “ribonucleic acid expression of LMP1” value [12] was “strongly induced expression”, the “ribonucleic acid expression of BLLF1” value [13] was “did not affect the expression of BLLF1 as much as other genes” and the “ribonucleic acid expression of BRLF1” value [14] was “strongly induced expression”. For the same compound, the “Zta expression (Zta band intensity with GAPDH as house-keeping protein)” value [15] was “slight increase in Zta expression”.
